Test results: US20160185682A1, “NITRIFICATION INHIBITOR COMPOSITIONS AND METHODS FOR PREPARING THE SAME” (Dow AgroSciences LLC, priority 2014, published 2016)

Key:
[1] = format: physicochemical
Excerpt: (§1) In some embodiments of the present disclosure, in order to measure the diffusion of nitrification inhibitors through volatilization barriers and, therefore, provide diffusion constants to estimate the ultimate loss of nitrification inhibitors to volatilization, Fourier transform infrared spectroscopy operating in attenuated total reflectance mode (“ATR-FTIR”) can be employed to probe diffusion of nitrification inhibitors, such as, for example, nitrapyrin, through polymeric materials.
(§2) A Nicolet 4700 Fourier transform infrared spectrometer (“FTIR”) with SCFGG using attenuated total reflectance (“ATR”) accessory (“Specac”) was utilized in the studies presented herein. Nitrapyrin technical grade manufactured by Dow AgroSciences LLC was used in some of the experiments presented herein. […]
(§3) Kollidon VA64 was purchased as a vinyl pyrrolidone/vinyl acetate 60/40 copolymer from Sigma Aldrich. […] Film thickness was measured using a Dektak profilometer (Veeco). […]
(§4) Films were allowed to equilibrate in the FTIR chamber for thirty minutes before the experiments were started. […] A single-beam spectrum was acquired of the film for use as a background spectrum, after which absorbance spectra were continuously recorded throughout the experiment. Peak heights were determined using a macro and data were fit according to the model as described below. […]

[2] = ATR-FTIR diffusion of nitrapyrin through polymer film, diffusion constant fitted by Fick's second law model; format: physicochemical
Excerpt: as §1, §2, §3, §4

[3] = at 230 Celsius; cited from earlier work

Clc1cccc(C(Cl)(Cl)Cl)n1 [nitrapyrin, 2-chloro-6-(trichloromethyl)pyridine]
diffusion constant for nitrapyrin through polymer film (printed as 'partition coefficient') [1]: 10^−3-10^−2 μm^2/s | diffusion profile of nitrapyrin through film ([2]; Kollidon VA64 film, 30 μm, curve not well-fitting a standard diffusion model): slow through the film before it rapidly equilibrates | diffusion constant ([2]; Polyvinyl pyrollidone (K90) film): 0.1-1 μm^2/s | vapor pressure [3]: 2.8×10^−3 mm Hg
